Measured values published in the NIST ThermoML archive (doi:10.1021/acs.jced.6b00575).
± gives the expanded uncertainty stated by the source.

Settings: 101.33 kPa, Liquid; for electrical conductivity: Alternating current cell with electrodes; for viscosity: Concentric cylinders viscometry; for mass density: Vibrating tube method

Work on `CC(=O)[NH+](C)C.O=S(=O)([N-]S(=O)(=O)C(F)(F)F)C(F)(F)F` [N,N-dimethylacetamidium bis(trifluoromethanesulfonyl)amide] yielded an electrical conductivity (313.15 K) of 0.403 ± 0.008 S/m, a viscosity (313.15 K) of 67.83 ± 1.4 mPa·s and a mass density (313.15 K) of 1549.8 ± 1.7 kg/m3. It also gave an electrical conductivity (323.15 K) of 0.574 ± 0.011 S/m, a viscosity (323.15 K) of 44.71 ± 0.93 mPa·s and a mass density (323.15 K) of 1539.4 ± 1.7 kg/m3. For the same compound, the electrical conductivity (333.15 K) was 0.782 ± 0.016 S/m, the viscosity (333.15 K) was 31.31 ± 0.65 mPa·s and the mass density (333.15 K) was 1529.1 ± 1.7 kg/m3. It also gave an electrical conductivity (343.15 K) of 1.02 ± 0.02 S/m, a viscosity (343.15 K) of 22.85 ± 0.48 mPa·s and a mass density (343.15 K) of 1518.6 ± 1.6 kg/m3. It also gave an electrical conductivity (353.15 K) of 1.29 ± 0.026 S/m, a viscosity (353.15 K) of 17.35 ± 0.36 mPa·s and a mass density (353.15 K) of 1508.1 ± 1.6 kg/m3. For the same compound, the viscosity (363.15 K) was 13.51 ± 0.28 mPa·s and the mass density (363.15 K) was 1497.8 ± 1.6 kg/m3.

`CN(C)C=O` [dimethylformamide] gave a viscosity (273.15 K) of 1.14 ± 0.02 mPa·s, a mass density (273.15 K) of 967.56 ± 0.12 kg/m3 and a viscosity (278.15 K) of 1.06 ± 0.02 mPa·s. For the same compound, the mass density (278.15 K) was 962.83 ± 0.12 kg/m3, the viscosity (283.15 K) was 0.979 ± 0.021 mPa·s and the mass density (283.15 K) was 958.1 ± 0.12 kg/m3. It also gave a viscosity (288.15 K) of 0.891 ± 0.019 mPa·s, a mass density (288.15 K) of 953.37 ± 0.12 kg/m3 and a viscosity (293.15 K) of 0.845 ± 0.018 mPa·s. It also gave a mass density (293.15 K) of 948.61 ± 0.12 kg/m3, a viscosity (298.15 K) of 0.81 ± 0.017 mPa·s and a mass density (298.15 K) of 943.85 ± 0.13 kg/m3. The viscosity (303.15 K) was 0.765 ± 0.016 mPa·s, the mass density (303.15 K) was 939.07 ± 0.13 kg/m3 and the viscosity (313.15 K) was 0.684 ± 0.015 mPa·s. The mass density (313.15 K) was 929.5 ± 0.13 kg/m3, the viscosity (323.15 K) was 0.615 ± 0.013 mPa·s and the mass density (323.15 K) was 919.86 ± 0.14 kg/m3. It also gave a viscosity (333.15 K) of 0.535 ± 0.012 mPa·s, a mass density (333.15 K) of 910.17 ± 0.14 kg/m3 and a viscosity (343.15 K) of 0.484 ± 0.011 mPa·s. It also gave a mass density (343.15 K) of 900.41 ± 0.14 kg/m3, a viscosity (353.15 K) of 0.436 ± 0.01 mPa·s and a mass density (353.15 K) of 890.57 ± 0.15 kg/m3. It also gave a viscosity (363.15 K) of 0.398 ± 0.009 mPa·s and a mass density (363.15 K) of 880.65 ± 0.15 kg/m3.

In the case of `CCC(=O)N(C)C` [N,N-dimethylpropionamide], the viscosity (273.15 K) is reported as 1.44 ± 0.03 mPa·s, the mass density (273.15 K) is reported as 942.45 ± 3.8 kg/m3 and the viscosity (278.15 K) is reported as 1.32 ± 0.03 mPa·s. It also gave a mass density (278.15 K) of 938.02 ± 3.8 kg/m3, a viscosity (283.15 K) of 1.21 ± 0.03 mPa·s and a mass density (283.15 K) of 933.6 ± 3.8 kg/m3. For the same compound, the viscosity (288.15 K) was 1.11 ± 0.03 mPa·s, the mass density (288.15 K) was 929.18 ± 3.8 kg/m3 and the viscosity (293.15 K) was 1.02 ± 0.02 mPa·s. For the same compound, the mass density (293.15 K) was 924.75 ± 3.8 kg/m3, the viscosity (298.15 K) was 0.958 ± 0.022 mPa·s and the mass density (298.15 K) was 920.32 ± 3.7 kg/m3. The viscosity (303.15 K) was 0.892 ± 0.021 mPa·s, the mass density (303.15 K) was 915.93 ± 3.7 kg/m3 and the viscosity (313.15 K) was 0.778 ± 0.018 mPa·s. For the same compound, the mass density (313.15 K) was 907.04 ± 3.7 kg/m3, the viscosity (323.15 K) was 0.696 ± 0.017 mPa·s and the mass density (323.15 K) was 898.13 ± 3.6 kg/m3. The viscosity (333.15 K) was 0.618 ± 0.015 mPa·s, the mass density (333.15 K) was 889.17 ± 3.6 kg/m3 and the viscosity (343.15 K) was 0.556 ± 0.013 mPa·s. It also gave a mass density (343.15 K) of 880.17 ± 3.6 kg/m3, a viscosity (353.15 K) of 0.504 ± 0.012 mPa·s and a mass density (353.15 K) of 871.11 ± 3.5 kg/m3. It also gave a viscosity (363.15 K) of 0.46 ± 0.011 mPa·s and a mass density (363.15 K) of 861.99 ± 3.5 kg/m3.

In the case of `CC(=O)N(C)C` [N,N-dimethylethanamide], the viscosity (273.15 K) is reported as 1.41 ± 0.03 mPa·s, the mass density (273.15 K) is reported as 959.16 ± 0.98 kg/m3 and the viscosity (278.15 K) is reported as 1.29 ± 0.03 mPa·s. For the same compound, the mass density (278.15 K) was 954.56 ± 0.98 kg/m3, the viscosity (283.15 K) was 1.19 ± 0.03 mPa·s and the mass density (283.15 K) was 949.95 ± 0.97 kg/m3. The viscosity (288.15 K) was 1.09 ± 0.02 mPa·s, the mass density (288.15 K) was 945.35 ± 0.97 kg/m3 and the viscosity (293.15 K) was 1 ± 0.02 mPa·s. It also gave a mass density (293.15 K) of 940.74 ± 0.96 kg/m3, a viscosity (298.15 K) of 0.946 ± 0.02 mPa·s and a mass density (298.15 K) of 936.13 ± 0.96 kg/m3. The viscosity (303.15 K) was 0.883 ± 0.019 mPa·s, the mass density (303.15 K) was 931.51 ± 0.96 kg/m3 and the viscosity (313.15 K) was 0.772 ± 0.017 mPa·s. For the same compound, the mass density (313.15 K) was 922.26 ± 0.95 kg/m3, the viscosity (323.15 K) was 0.692 ± 0.015 mPa·s and the mass density (323.15 K) was 912.99 ± 0.94 kg/m3. It also gave a viscosity (333.15 K) of 0.614 ± 0.014 mPa·s, a mass density (333.15 K) of 903.68 ± 0.93 kg/m3 and a viscosity (343.15 K) of 0.553 ± 0.013 mPa·s. The mass density (343.15 K) was 894.31 ± 0.92 kg/m3, the viscosity (353.15 K) was 0.502 ± 0.011 mPa·s and the mass density (353.15 K) was 884.9 ± 0.91 kg/m3. The viscosity (363.15 K) was 0.459 ± 0.011 mPa·s and the mass density (363.15 K) was 875.43 ± 0.9 kg/m3.

`CCC(=O)[NH+](C)C.O=S(=O)([N-]S(=O)(=O)C(F)(F)F)C(F)(F)F` showed an electrical conductivity (273.15 K) of 0.053 ± 0.001 S/m, a viscosity (273.15 K) of 583.6 ± 21 mPa·s and a mass density (273.15 K) of 1546.8 ± 1.7 kg/m3. For the same compound, the electrical conductivity (278.15 K) was 0.075 ± 0.002 S/m, the viscosity (278.15 K) was 401.3 ± 13 mPa·s and the mass density (278.15 K) was 1541.52 ± 1.7 kg/m3. It also gave an electrical conductivity (283.15 K) of 0.103 ± 0.002 S/m, a viscosity (283.15 K) of 284.2 ± 8.5 mPa·s and a mass density (283.15 K) of 1536.2 ± 1.7 kg/m3. For the same compound, the electrical conductivity (288.15 K) was 0.136 ± 0.003 S/m, the viscosity (288.15 K) was 207.2 ± 5.6 mPa·s and the mass density (288.15 K) was 1530.91 ± 1.7 kg/m3. For the same compound, the electrical conductivity (293.15 K) was 0.177 ± 0.004 S/m, the viscosity (293.15 K) was 154.9 ± 3.9 mPa·s and the mass density (293.15 K) was 1525.62 ± 1.6 kg/m3. For the same compound, the electrical conductivity (298.15 K) was 0.225 ± 0.005 S/m, the viscosity (298.15 K) was 117.7 ± 2.7 mPa·s and the mass density (298.15 K) was 1520.35 ± 1.6 kg/m3. For the same compound, the electrical conductivity (303.15 K) was 0.28 ± 0.006 S/m, the viscosity (303.15 K) was 91.33 ± 2 mPa·s and the mass density (303.15 K) was 1515.12 ± 1.6 kg/m3. It also gave an electrical conductivity (313.15 K) of 0.415 ± 0.008 S/m, a viscosity (313.15 K) of 57.92 ± 1.2 mPa·s and a mass density (313.15 K) of 1504.73 ± 1.6 kg/m3. The electrical conductivity (323.15 K) was 0.585 ± 0.012 S/m, the viscosity (323.15 K) was 39.33 ± 0.82 mPa·s and the mass density (323.15 K) was 1494.43 ± 1.6 kg/m3. It also gave an electrical conductivity (333.15 K) of 0.787 ± 0.016 S/m, a viscosity (333.15 K) of 27.84 ± 0.58 mPa·s and a mass density (333.15 K) of 1484.21 ± 1.6 kg/m3. For the same compound, the electrical conductivity (343.15 K) was 1.01 ± 0.02 S/m, the viscosity (343.15 K) was 20.58 ± 0.43 mPa·s and the mass density (343.15 K) was 1474.06 ± 1.6 kg/m3. The electrical conductivity (353.15 K) was 1.28 ± 0.026 S/m, the viscosity (353.15 K) was 15.67 ± 0.33 mPa·s and the mass density (353.15 K) was 1463.98 ± 1.6 kg/m3. It also gave a viscosity (363.15 K) of 12.28 ± 0.26 mPa·s and a mass density (363.15 K) of 1453.97 ± 1.6 kg/m3.
